The results in this text go back to PMC9578445, “Association of respiratory failure with inhibition of NaV1.6 in the phrenic nerve” (Channels, 2022).

Data set [1] concerns phrenic nerve. Kind of data set: Rat phrenic nerve firing assay. To be noted: rat in vivo, measured at 30 minutes. On the procedure:
To determine direct effects on phrenic nerve activity, male CD rats were anesthetized and instrumented as described above for the CV/R assay. In addition, an incision was made in the ventral neck area and the right phrenic nerve identified anatomically and isolated via blunt dissection. The phrenic nerve was placed over a high impedance bipolar hook electrode and the nerve covered with mineral oil to prevent desiccation. Animals were mechanically ventilated via a tracheotomy (~10 mL/kg, 40–70 breaths/min, titrated individually to stabilize phrenic activity) following neuromuscular block (pancuronium 0.5–1 mg/kg, iv) and bilateral vagotomy to better define test agent effects on phrenic nerve activity. Anesthesia was verified repeatedly following pancuronium administration by testing the BP/HR response to noxious stimuli. Spontaneous electrical activity was continuously recorded and then later rectified and averaged to calculate frequency, width, peak height of bursts, and magnitude. Magnitude of the activity was calculated by taking the absolute value of the raw signal and then averaging that signal over 50 ms increments. The resulting average signal was then converted to magnitude by subtracting the […] for each phrenic burst complex. The resulting magnitude values were then averaged over 1 minute increments to result in the graphs shown. Figure S1 in the Supplemental Information illustrates this analytical procedure.
(§1) For in vivo CVR and phrenic nerve activity studies, all raw signals were amplified via general purposed biological amplifier (filter settings DC – 3-5 KhZ) then digitized, calibrated and collected at a minimum of 500 Hz (1000 Hz for ECG and 2000 Hz for cardiac electrograms, and 10 KHz for phrenic nerve activity) using Notocord-HEM data acquisition and analysis software. The raw signal was filtered following acquisition with a bandpass filter set to 200–800 Hz). Vehicle (100% dimethylformamdide, DMF) or compound formulated in the vehicle was administered as a 30-minute IV infusion at 0.0167 μL/g body weight/min. Doses were selected to achieve unbound plasma concentrations in range of measured Nav1.6 IC50 values when infused at 0.0167uL/g body weight/min based on measured rat clearance, plasma protein binding and Nav1.6 IC50. Exposure in rats was determined in separate pharmacokinetics experiments where compounds were administered via IV dosing.

Data set [2] can be described thus: Plasma exposure in phrenic nerve activity assay. The conditions noted are these: rat, 30 mg/kg; for concentration at 30 min / concentration at 15 min: CD, plasma, intravenous. Format: in vivo.
Text: as §1

Data set [3] has as its target T1, Rat NaV1.6 (Rattus norvegicus, UniProt O88420).
T1 construct: expressed in transfected cells; host or cells: HEK cells
Kind of data set: PatchXpress automated patch clamp, hyperpolarized-state protocol. The conditions noted are these: for IC50: HEK cells, hyperpolarized protocol. The format is cell-based. On the procedure:
(§2) Sodium currents were recorded from recombinant Human Embryonic Kidney 293 cell lines stably overexpressing the respective sodium channel type (NaV1.2, 1.5, 1.4, 1.6, 1.7). Recording solutions were comprised of the following (in mM): Internal solution: 30 CsCl, 5 HEPES, 10 EGTA, 120 CsF, 5 NaF, 2 MgCl2, pH = 7.3 with CsOH; External solution 1: 40 NaCl, 120 NMDG, 1 KCl, 0.5 MgCl2, 5 HEPES, 2.7 CaCl2, pH to 7.3 with NaOH, used for NaV1.5 recordings; External solution 2: 150 NaCl, 5 KCl, 2 CaCl2, 1 MgCl2, 10 HEPES, 12 Dextrose, pH 7.3 with NaOH, used for NaV1.7, 1.6, 1.4, and 1.2 recordings.
(§3) Whole-cell currents were recorded from cells stably expressing NaV channels using the PatchXpress 7000A automated patch clamp platform (Molecular Devices, LLC; Sunnyvale, CA). A portable air-conditioning unit was installed on the PatchXpress instruments to maintain the temperature of the headstage at 21°C. Cells were voltage clamped at −60 mV for cell detection and sealing. At the start of each recording, a voltage curve and an inactivation curve was run for each cell to determine the voltage at which 50% of the channels reside in the inactivated state (V0.5 inact). The voltage curve was used to determine if the cell was adequately clamped; cells with currents larger than 10nA or with space clamp issues were not used further.
(§4) NaV1.7, NaV1.6, NaV1.4: Compound potency was measured in a hyperpolarized-state protocol where the holding potential for each cell was set to V0.5inact – 20 mV. A pulse train consisting of 7 consecutive double pulses, 8 second hypepolarizing prepulse to −120 mV followed by a test pulse to −10 mV was applied at a frequency of 0.1 Hz. First, vehicle (0.3% DMSO) was added to establish a baseline measurement. Once baseline was established, test compounds were added. Cells were exposed to compound for 5 minutes at 20 mV negative to V0.5inact then exposed to the same hyperpolarized voltage protocol. (no pulsing during compound incubation). A washout was performed to measure recovery of the sodium currents from inhibition.
(§5) Recordings were included for analysis when current amplitude reached steady-state in vehicle, compound inhibition was concentration-dependent and currents recovered during wash-out periods. Raw data from PatchXpress experiments were retrieved from the database and analyzed using the DataXpress 2 software (Molecular Devices).
(§6) At least 3 concentrations (3–9 replicates per concentration) were tested and at least one concentration had to cause 20–80% current inhibition.
In general terms: The patch-clamp technique gives a direct electrical read-out from membranes.

The target in data set [4] is T2, Human NaV1.7 (Homo sapiens, UniProt Q15858).
T2 construct: expressed in transfected cells
The description is as above. Format: cell-based. To be noted: HEK 293 cells. On the procedure:
as §2, §3, §4, §5, §6

Data set [5] has as its target T3, Human NaV1.4 (Homo sapiens, UniProt P35499).
T3 construct: expressed in transfected cells
The description is as above. Format: cell-based. The conditions noted are these: HEK 293 cells. On the procedure: as §2, §3, §4, §5, §6

A short description of data set [6]: Permeability (Papp, passive diffusion). The format is in vitro ADME.
Data set [7] concerns anesthetized male CD rats. Kind of data set: Rat Cardiovascular/Respiratory (CV/R) assay. Format: in vivo. Details: ∆ QRS Interval: unit not given here. The conditions noted are these: for ∆ Heart Rate / ∆ Mean Arterial Pressure / ∆ QRS Interval / ∆ respiratory rate: rat. On the procedure:
Male CD Rats were anesthetized with ketamine:xylazine (85 mg/kg:5 mg/kg, im, to effect). The left femoral artery and vein were cannulated for the measurement of blood pressure and the administration of test agent, respectively. The right femoral vein was cannulated for maintenance anesthetic infusion (ketamine:xylazine ~35 mg/kg/hr:1.5 mg/kg/hr, iv, to effect). Needle electrodes were placed subcutaneously at the right axillary and left inguinal areas to record lead II ECGs. When ECG intervals were required to determine effect on cardiac conduction a pacing/recording electrode catheter was advanced through the right jugular vein to pace the heart. ECG intervals were then measured at a fixed cardiac rate of 400 beats/minute to remove any variability of intrinsic heart rate on these parameters.
To determine the test agent-dependent effect on respiratory rate, a tracheotomy was also performed using a short length of polyethylene tubing containing a thermistor (AD Instruments). The change in temperature detected by the thermistor was used to calculate respiratory rate.
as §1

The mark [8] stands for this setting: rat CV/R assay, IV infusion, doses tested.

The structures appear in SMILES notation. Like-named read-outs stand apart in the source and are kept apart here. Bounds are passed on as bounds.

T1 sequence (O88420 whole entry): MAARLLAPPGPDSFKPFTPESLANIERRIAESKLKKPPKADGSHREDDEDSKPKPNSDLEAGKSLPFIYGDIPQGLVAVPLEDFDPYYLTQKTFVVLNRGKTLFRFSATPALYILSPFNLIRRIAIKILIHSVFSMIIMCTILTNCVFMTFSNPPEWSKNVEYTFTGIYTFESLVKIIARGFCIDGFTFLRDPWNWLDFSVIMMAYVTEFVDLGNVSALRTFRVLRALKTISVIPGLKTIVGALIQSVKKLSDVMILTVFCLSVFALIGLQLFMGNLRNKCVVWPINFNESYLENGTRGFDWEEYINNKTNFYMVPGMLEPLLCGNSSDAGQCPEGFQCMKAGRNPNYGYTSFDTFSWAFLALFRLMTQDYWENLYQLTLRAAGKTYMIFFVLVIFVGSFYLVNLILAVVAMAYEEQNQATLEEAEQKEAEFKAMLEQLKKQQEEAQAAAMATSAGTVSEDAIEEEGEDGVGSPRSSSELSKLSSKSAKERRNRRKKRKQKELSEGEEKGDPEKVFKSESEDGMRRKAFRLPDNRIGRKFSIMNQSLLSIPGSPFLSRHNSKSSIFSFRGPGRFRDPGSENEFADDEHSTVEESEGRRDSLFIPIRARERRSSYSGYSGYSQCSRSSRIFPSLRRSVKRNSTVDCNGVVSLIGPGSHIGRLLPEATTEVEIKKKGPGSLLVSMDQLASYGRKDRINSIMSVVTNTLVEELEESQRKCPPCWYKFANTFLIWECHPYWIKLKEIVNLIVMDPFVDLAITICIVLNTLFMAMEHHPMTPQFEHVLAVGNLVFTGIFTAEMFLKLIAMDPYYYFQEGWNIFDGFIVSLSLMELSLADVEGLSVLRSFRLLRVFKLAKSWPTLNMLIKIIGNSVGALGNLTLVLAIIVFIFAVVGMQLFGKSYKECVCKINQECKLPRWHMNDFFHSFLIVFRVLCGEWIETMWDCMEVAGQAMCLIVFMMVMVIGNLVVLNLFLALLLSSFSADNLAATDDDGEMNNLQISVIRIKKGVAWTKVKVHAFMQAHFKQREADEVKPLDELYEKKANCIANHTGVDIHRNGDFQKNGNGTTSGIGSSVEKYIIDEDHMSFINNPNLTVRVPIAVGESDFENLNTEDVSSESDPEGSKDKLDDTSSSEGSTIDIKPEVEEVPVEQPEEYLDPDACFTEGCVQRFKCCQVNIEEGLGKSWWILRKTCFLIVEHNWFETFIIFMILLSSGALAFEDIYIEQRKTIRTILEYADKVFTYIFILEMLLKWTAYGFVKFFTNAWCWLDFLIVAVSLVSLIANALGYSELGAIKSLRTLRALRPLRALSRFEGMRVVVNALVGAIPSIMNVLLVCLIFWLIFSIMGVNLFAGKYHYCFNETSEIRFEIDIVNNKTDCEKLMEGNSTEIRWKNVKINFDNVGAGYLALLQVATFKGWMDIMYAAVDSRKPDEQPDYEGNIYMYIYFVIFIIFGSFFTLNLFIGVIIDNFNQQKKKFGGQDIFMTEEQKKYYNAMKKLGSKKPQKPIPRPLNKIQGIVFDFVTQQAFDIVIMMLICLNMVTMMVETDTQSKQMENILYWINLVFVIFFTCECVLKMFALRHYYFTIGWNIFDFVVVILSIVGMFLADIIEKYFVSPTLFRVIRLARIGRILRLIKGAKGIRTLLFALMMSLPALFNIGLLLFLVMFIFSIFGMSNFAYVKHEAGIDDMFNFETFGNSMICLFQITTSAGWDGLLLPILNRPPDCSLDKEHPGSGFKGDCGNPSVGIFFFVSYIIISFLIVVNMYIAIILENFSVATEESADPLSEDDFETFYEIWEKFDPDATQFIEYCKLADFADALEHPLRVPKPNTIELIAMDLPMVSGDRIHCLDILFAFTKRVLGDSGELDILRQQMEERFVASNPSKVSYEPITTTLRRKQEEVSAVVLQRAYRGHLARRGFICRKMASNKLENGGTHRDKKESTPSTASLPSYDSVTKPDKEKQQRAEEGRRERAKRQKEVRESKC
T2 sequence (Q15858 whole entry): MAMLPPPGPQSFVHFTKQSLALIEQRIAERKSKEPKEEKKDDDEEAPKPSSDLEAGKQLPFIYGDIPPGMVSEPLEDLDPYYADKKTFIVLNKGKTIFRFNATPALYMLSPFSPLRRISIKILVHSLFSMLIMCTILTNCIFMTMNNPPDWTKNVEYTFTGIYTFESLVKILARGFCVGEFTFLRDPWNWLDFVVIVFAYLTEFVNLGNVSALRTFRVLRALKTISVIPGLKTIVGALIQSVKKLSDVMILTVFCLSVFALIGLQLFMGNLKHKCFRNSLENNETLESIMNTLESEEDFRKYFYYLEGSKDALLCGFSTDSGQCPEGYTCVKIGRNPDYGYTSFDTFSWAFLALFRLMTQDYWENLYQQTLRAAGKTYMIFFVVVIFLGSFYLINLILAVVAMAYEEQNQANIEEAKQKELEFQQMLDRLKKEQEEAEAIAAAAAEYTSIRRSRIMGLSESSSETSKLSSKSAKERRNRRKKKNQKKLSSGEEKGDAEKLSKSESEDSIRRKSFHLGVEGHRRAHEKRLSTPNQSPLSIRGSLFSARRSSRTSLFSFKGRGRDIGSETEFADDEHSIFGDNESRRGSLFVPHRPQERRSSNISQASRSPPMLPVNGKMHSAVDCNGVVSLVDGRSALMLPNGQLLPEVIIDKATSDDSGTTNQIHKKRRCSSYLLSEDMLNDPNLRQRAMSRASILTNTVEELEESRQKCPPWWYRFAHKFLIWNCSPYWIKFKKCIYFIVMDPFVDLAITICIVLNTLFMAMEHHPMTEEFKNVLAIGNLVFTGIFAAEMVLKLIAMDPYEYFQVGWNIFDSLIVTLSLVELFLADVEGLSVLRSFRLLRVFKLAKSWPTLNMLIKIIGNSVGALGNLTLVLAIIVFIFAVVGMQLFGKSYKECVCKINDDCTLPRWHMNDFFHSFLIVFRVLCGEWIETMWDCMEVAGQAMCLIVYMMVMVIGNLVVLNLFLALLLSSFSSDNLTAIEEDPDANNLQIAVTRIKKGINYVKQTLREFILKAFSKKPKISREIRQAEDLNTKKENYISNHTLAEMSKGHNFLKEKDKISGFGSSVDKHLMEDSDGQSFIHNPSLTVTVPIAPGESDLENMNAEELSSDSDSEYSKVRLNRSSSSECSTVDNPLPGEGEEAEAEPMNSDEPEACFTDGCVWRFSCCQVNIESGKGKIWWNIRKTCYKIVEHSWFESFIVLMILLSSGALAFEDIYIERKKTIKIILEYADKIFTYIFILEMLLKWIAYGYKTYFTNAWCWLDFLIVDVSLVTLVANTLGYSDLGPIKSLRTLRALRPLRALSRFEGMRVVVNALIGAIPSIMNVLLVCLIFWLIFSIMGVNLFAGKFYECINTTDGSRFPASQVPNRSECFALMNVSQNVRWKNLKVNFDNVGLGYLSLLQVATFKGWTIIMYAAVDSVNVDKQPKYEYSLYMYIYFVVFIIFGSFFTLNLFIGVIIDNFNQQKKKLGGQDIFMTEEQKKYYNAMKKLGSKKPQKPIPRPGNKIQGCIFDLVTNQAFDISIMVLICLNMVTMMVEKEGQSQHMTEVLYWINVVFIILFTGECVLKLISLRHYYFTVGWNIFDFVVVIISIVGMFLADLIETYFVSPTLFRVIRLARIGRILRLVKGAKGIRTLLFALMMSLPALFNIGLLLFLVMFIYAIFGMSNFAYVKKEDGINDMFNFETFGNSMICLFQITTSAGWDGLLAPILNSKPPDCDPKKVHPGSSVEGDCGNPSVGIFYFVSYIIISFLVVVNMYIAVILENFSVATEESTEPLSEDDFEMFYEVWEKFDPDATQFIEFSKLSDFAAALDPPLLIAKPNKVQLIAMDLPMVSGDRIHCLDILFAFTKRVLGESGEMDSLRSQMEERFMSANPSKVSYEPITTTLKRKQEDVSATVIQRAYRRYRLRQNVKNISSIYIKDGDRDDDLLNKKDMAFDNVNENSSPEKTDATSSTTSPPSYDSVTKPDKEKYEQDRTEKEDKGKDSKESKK

`O=S(=O)(Nc1nccs1)c1cc(Cl)c(NCCCCNC[C@H]2CCCN2)cc1F` [SSCI-1]: the “percent decrease in the magnitude of the phrenic nerve signal” value in data set [1] was “did not show any decrease”. Moreover, the concentration at 30 min in data set [2] (read-out: Total [plasma]) worked out at 236 ± 110 µM; in data set [2] (read-out: Unbound [plasma]), 15.8 ± 7.37 µM. The IC50 – broadly, the concentration that inhibits the measured activity by half – in data set [3] is 19 µM; in data set [4] it was 65 nM; in data set [5], more than 30 µM. In data set [6], the Papp is 1.027 10e-6cm/s. Also, the mortality entry in data set [7] (setting [8]) is “No mortality”. In addition, the “effects on cardiovascular and respiratory parameters” value in data set [7] (rat CV/R assay, at unbound plasma exposure 16.9 μM) is reported as “minimal effects”. In addition, the “∆ Heart Rate” value in data set [7] (IV infusion, 7 mg/kg, 15 min) is 0.5 ± 2.2 bpm; in data set [7] (IV infusion, 7 mg/kg, 30 min), −1.8 ± 3.7 bpm; in data set [7] (IV infusion, 14 mg/kg, 15 min), −1.4 ± 1.5 bpm; in data set [7] (IV infusion, 14 mg/kg, 30 min), −0.5 ± 2.9 bpm; in data set [7] (IV infusion, 30 mg/kg, 15 min), −0.4 ± 1.2 bpm; in data set [7] (IV infusion, 30 mg/kg, 30 min), 2.1 ± 1.4 bpm. Also, the “∆ Mean Arterial Pressure” value is listed as 4.1 ± 0.3 mmHg in data set [7] (IV infusion, 7 mg/kg, 15 min); 2.7 ± 0.5 mmHg in data set [7] (IV infusion, 7 mg/kg, 30 min); 2.2 ± 1.1 mmHg in data set [7] (IV infusion, 14 mg/kg, 15 min); 2.3 ± 2.5 mmHg in data set [7] (IV infusion, 14 mg/kg, 30 min); 10.5 ± 1.5 mmHg in data set [7] (IV infusion, 30 mg/kg, 15 min); 4.6 ± 1.9 mmHg in data set [7] (IV infusion, 30 mg/kg, 30 min). Further, the “∆ QRS Interval” value in data set [7] (IV infusion, 7 mg/kg, 15 min) is 1.4 ± 0.6; in data set [7] (IV infusion, 7 mg/kg, 30 min), 2.5 ± 1.1; in data set [7] (IV infusion, 14 mg/kg, 15 min) it was 0.4 ± 0.6; in data set [7] (IV infusion, 14 mg/kg, 30 min), 0.4 ± 0.7; in data set [7] (IV infusion, 30 mg/kg, 15 min), 3.7 ± 0.9; in data set [7] (IV infusion, 30 mg/kg, 30 min) it was 3.9 ± 0.8. The “∆ respiratory rate” value in data set [7] (IV infusion, 7 mg/kg, 15 min) is reported as 0.8 ± 1.8%; in data set [7] (IV infusion, 7 mg/kg, 30 min) it was 4.5 ± 1.7%; in data set [7] (IV infusion, 14 mg/kg, 15 min), 1.9 ± 1.6%; in data set [7] (IV infusion, 14 mg/kg, 30 min) it was 4.0 ± 1.0%; in data set [7] (IV infusion, 30 mg/kg, 15 min), −10.1 ± 0.9%; in data set [7] (IV infusion, 30 mg/kg, 30 min), −24.8 ± 3.3%.
`C[C@H](c1cccc2c1CNCC2)n1c(=O)oc2cc(S(=O)(=O)Nc3ncns3)ccc21` [SSCI-3]: the “percent decrease in the magnitude of the phrenic nerve signal” value in data set [1] is reported as 74.2%. For the same molecule, the values for the concentration at 15 min in data set [2] (read-out: Total [plasma]) and in data set [2] (read-out: Unbound [plasma]) were 32.1 ± 3.4 µM and 3.78 ± 0.4 µM, respectively. The “Total [plasma]” value in data set [2] (22–30 min) came to 43.549 ± 3.116 µM. In data set [2] (22–30 min), the “Unbound [plasma]” value stood at 5.138 ± 0.36 µM. The IC50 was 8.1 µM in data set [3], 1000 nM in data set [4] and more than 30 µM in data set [5]. Moreover, the Papp in data set [6] is 1.716 10e-6cm/s. Further, in data set [7] (rat CV/R assay, IV, 10 mg/kg), the mortality result is recorded as “No mortality”. The time of mortality in data set [7] (rat CV/R assay, IV, 30 mg/kg) is 20 to 21 min. The “∆ Heart Rate” value was 3.0 ± 0.7 bpm in data set [7] (IV infusion, 10 mg/kg, 15 min); 5.0 ± 1.9 bpm in data set [7] (IV infusion, 10 mg/kg, 30 min); 5.6 ± 1.7 bpm in data set [7] (IV infusion, 30 mg/kg, 15 min). The “∆ Mean Arterial Pressure” value in data set [7] (IV infusion, 10 mg/kg, 15 min) was 12.9 ± 2.1 mmHg; in data set [7] (IV infusion, 10 mg/kg, 30 min), 6.8 ± 8.7 mmHg; in data set [7] (IV infusion, 30 mg/kg, 15 min), 13.8 ± 0.7 mmHg. For the same molecule, the “∆ respiratory rate” value is reported as −8.5 ± 1.8% in data set [7] (IV infusion, 10 mg/kg, 15 min); −3.2 ± 1.8% in data set [7] (IV infusion, 10 mg/kg, 30 min); −100% in data set [7] (IV infusion, 30 mg/kg, 20–21 min); −6.2 ± 5.4% in data set [7] (IV infusion, 30 mg/kg, 15 min). Also, the “∆ QRS Interval” value is recorded as 0.5 ± 0.2 in data set [7] (IV infusion, 10 mg/kg, 30 min) and 0.3 + 0.4 in data set [7] (IV infusion, 30 mg/kg, 15 min).
For `COc1ccc(CCC(c2cccc3c2CNCC3)n2c(=O)oc3cc(S(=O)(=O)Nc4ncns4)c(F)cc32)cc1` (stereo not drawn) [SSCI-6], the figures for the IC50 in data set [3] and in data set [4] were more than 0.041 µM and 290 nM, respectively. For the same molecule, the inhibition (in general, the change of the read-out against control, counted positive when it falls) at 0.041 µM in data set [3] (at 41 nM) was determined as 45%. Besides, the mortality result in data set [7] (setting [8]) is “mortality”. Also, the “∆ respiratory rate” value in data set [7] (IV infusion, 1 mg/kg, 20–23 min) was −100%; in data set [7] (IV infusion, 1 mg/kg, 15 min), −18.3 ± 9.3%; in data set [7] (IV infusion, 1 mg/kg, 30 min), −7.8%. Also, the “∆ Heart Rate” value was −0.1 ± 0.4 bpm in data set [7] (IV infusion, 1 mg/kg, 15 min) and 1.7 bpm in data set [7] (IV infusion, 1 mg/kg, 30 min). Further, the “∆ Mean Arterial Pressure” value in data set [7] (IV infusion, 1 mg/kg, 15 min) stood at 8.2 ± 7.9 mmHg; in data set [7] (IV infusion, 1 mg/kg, 30 min) it was 7.5 mmHg. Also, the “∆ QRS Interval” value in data set [7] (IV infusion, 1 mg/kg, 15 min) amounted to 1.0 ± 0.8; in data set [7] (IV infusion, 1 mg/kg, 30 min), 1.7.
